Reference: patent US10561712B2, “Treatment of cancer and inhibition of metastasis using hemoglobin beta subunit” (UNIVERSITY OF MARYLAND, BALTIMORE, priority 2014, dated 2020)

Key:
[1] = test system: MicroNB cells (human neuroblastoma lung micrometastatic variant, MHH-NB11); assay: MTS-based viability assay, MicroNB cells; format: cell-based; details: 10 μg human HBB, 72 hr, FIG. 3D
Text: The human neuroblastoma lung micrometastatic (MicroNB) and macrometastatic (MacroNB) variants were generated using a mouse model for human neuroblastoma metastasis (Nevo et al., 2008) from the parental cell lines MHH-NB11 (Pietsch et al., 1988) and SH-SY5Y (Biedler et al., 1978) as detailed here (Edry Botzer et al., 2011), and were maintained in culture as previously described (Nevo et al., 2008). The MicroNB and MacroNB variants were previously designated DisNB and MetNB, respectively (Edry Botzer et al., 2011). Authentication of MicroNB and MacroNB cells was performed by short tandem repeat analysis of DNA using the Type-it Microsatellite PCR Kit (Qiagen, Valencia, Calif.), for the genes published by the American Type Culture Collection (ATCC) (Manassas, Va.). The parental cell line MHH-NB11 was kindly provided by Dr. T. Pietsch (Department of Neuropathology, University of Bonn Medical Center, Bonn, Germany).
(§1) Neuroblastoma cells were seeded (3×10^4 per well) in a 96-well flat-bottomed tissue culture plate. After an incubation of 24 hr, cells were washed and incubated with the relevant factors (detailed in the following sections) diluted in starvation medium (RPMI-1640 containing 5% bovine serum albumin (BSA); Biological Industries, Kibbutz Beit Haemek, Israel; Sigma-Aldrich). Cell viability under normal conditions (starvation medium containing BSA) or after incubation with the relevant factors was monitored after 72 hr using an XTT (XTT cell proliferation kit; Biological Industries) or MTS-based (CellTiter 96® AQueous One Solution Cell Proliferation Assay; Promega) viability assays according to manufacturer instructions. Cells were also counted using the trypan-blue exclusion assay to verify the results obtained by XTT and MTS-based viability assays.
Circular dichroism analysis of human hemoglobin (HB), hemoglobin subunit alpha (HBA) and subunit beta (HBB) indicated a helical structure for all three proteins (FIG. 3C). […] Neuroblastoma cells were seeded (3×10^4 per well) in a 96 well flat-bottomed tissue culture plate. After 24 hr of incubation cells were washed and incubated with human HBB dissolved in starvation medium (RPMI 5% BSA) to the indicated concentrations. Cell viability under normal conditions (starvation medium) or after incubation with human HBB was monitored after an incubation of 72 hr using an MTS-based viability assay (CellTiter 96® AQueous One Solution Cell Proliferation Assay, Promega) according to the manufacturer instructions. Data are means of three independent experiments±SD. Significance was evaluated using Student's t-test for each variant incubated with human HBB compared to incubation with control media (con).

[2] = test system: MCF-7 breast carcinoma cells; assay: Viability of cancerous cell lines, MCF-7; details: MTS-based assay; FIG. 3E
Procedure: as §1
When incubated with the highest amount of HBB (100 μg), the viability of the following cell lines was inhibited: the breast cancer cell lines T47D and MCF-7, the prostate cancer cell line 22RVi, the cervical cancer cell line Hela, and the melanoma cell lines RALL and RKTJ.

[3] = test system: HPEC (Human pulmonary endothelial cells); assay: Viability of normal cells, HPEC; format: cell-based; details: normal lung-residing cell line, data not shown
Text: (§2) The influence of HBB on the viability of the normal lung-residing cell lines HPEC (Human pulmonary endothelial cells) and HLMEC (Human lung microvascular endothelial cells) and on the normal kidney cell line 293T and 293A was examined as well.

[4] = test system: HLMEC (Human lung microvascular endothelial cells); assay: Viability of normal cells, HLMEC; format: cell-based; details: normal lung-residing cell line, data not shown
Text: as §2

[5] = test system: ERK1/2 phosphorylation in MicroNB cells; assay: ERK1/2 phosphorylation (western blot), MicroNB cells; format: cell-based, human; details: HBB (1 μg) for 48 hr; in reference to total ERK2; FIG. 4A
Procedure: Lysates of neuroblastoma cells and of mouse organs were resolved on SDS-PAGE after the addition of Laemmli sample buffer, and transferred onto nitrocellulose membrane. The total amount of protein in the lanes was assessed by Ponceau staining prior to blocking of the membrane. The membrane was blocked at room temperature with 3% BSA (Sigma-Aldrich) diluted in TBS-Tween (TBST) for 1 hr. For detection of the target proteins, membranes were incubated with relevant primary antibodies (see “Antibodies”), then washed 3 times×5 min with TBSTX1 and incubated with suitable HRP-conjugated secondary antibodies (see “Antibodies”). Membranes were washed again 5 times×3 min with TBSTX1. The bands were visualized by chemiluminescence-ECL reactions and autoradiography by exposure to Fuji film. The amount of the relevant protein in the lanes was estimated by densitometry using Scion Image software (Scion, Frederick, Md., USA).
Neuroblastoma cells (5×10^6) were plated and after 24 hr the growth medium was replaced with starvation medium (RPMI 0.5% FCS) for 24 hr. […] ERK1/2 phosphorylation was calculated in reference to total ERK2 protein, p38 and TAK1 phosphorylation was calculated in reference to total p38 and TAK1, respectively, as measured by densitometry using Scion Image software (Scion). […]

[6] = test system: MicroNB cells; assay: Cell cycle analysis by flow cytometry, MicroNB cells; format: cell-based, human; details: HBB (1 μg) for 48 hr
Procedure: (§3) Neuroblastoma cells (5×10^5) were plated and after 24 hr, cells were incubated for 48 hr with HBB diluted in starvation medium (RPMI 5% BSA) to a concentration of 10 μg/ml. Neuroblastoma cells incubated with starvation medium containing BSA alone served as control. Cells were pelleted, washed and resuspended in 0.5 ml PBSX1, containing 0.05 ml propidium iodide (PI) (P-4170, Sigma) (50 μg/ml), and 0.05 ml Triton X-100 (Sigma-Aldrich). Flow cytometry analysis was performed using Becton Dickinson FACSort and CellQuest software (Becton Dickinson, Mountain View, Calif.).
(§4) The cells were also subjected to measurement of cellular DNA content and cell cycle analysis using flow cytometry. Incubation with human HBB elevated the amount of MicroNB and MacroNB cells in the sub GO phase, by 18% and 11%, respectively (data not shown).

[7] = test system: MacroNB cells; assay: Cell cycle analysis by flow cytometry, MacroNB cells; format: cell-based, human; details: HBB (1 μg) for 48 hr
Procedure: as §3, §4

Substance: HBB: beta subunit of human hemoglobin, 147 amino acids, SEQ ID NO:2, HPLC-purified from native human hemoglobin
- decrease in viability of MicroNB cells [1]: 52%
- influence on viability of MCF-7 breast carcinoma cells (in words) [2]: inhibits the viability
- influence on the viability of normal cells [3]: did not influence the viability
- influence on the viability of normal cells [4]: did not influence the viability
- ERK phosphorylation in MicroNB cells [5]: decreased
- elevation of the amount of MicroNB cells in G0-G1 phase ([6]; FIG. 4B): 59%
- elevation of the amount of MicroNB cells in the sub G0 phase ([6]; data not shown): 18%
- elevation of the amount of MacroNB cells in G0-G1 phase ([7]; FIG. 4B): 23%
- elevation of the amount of MacroNB cells in the sub G0 phase ([7]; data not shown): 11%
